Reference: paper PMC3517606 (2012)

How the values were obtained:
[1] = test system: ds26 (DNA, duplex) CAATCGGATCGAATTCGATCCGATTG; assay: emission spectroscopy; conditions: 100 mM KCl; 10 mM Tris-HCl, pH 7.4; 4 µM Ru, 8 µM DNA
[2] = test system: F21T (DNA, G4) GGGTTAGGGTTAGGGTTAGGG; assay: FRET melting; conditions: 60 mM KCl; 10 mM Tris-HCl, pH 7.4; 1 µM DNA, [Ru]:[DNA] = 2:1
[3] = test system: HTG21 (DNA, G4) GGGTTAGGGTTAGGGTTAGGG; assay: luminescence titration, Scatchard; conditions: 100 mM KCl; 10 mM Tris-HCl, pH 7.4, 20 °C; 4 µM Ru; DNA concentration in base pairs
[4] = test system: HTG21 (DNA, G4) GGGTTAGGGTTAGGGTTAGGG; assay: absorption titration; conditions: 100 mM NaCl; 10 mM Tris-HCl, 25 °C

| Compound | binding [1] | ΔTm [2] [°C] | Kb [3] [M⁻¹] | Kb [4] [M⁻¹] |
| --- | --- | --- | --- | --- |
| Oc1ccc(-c2nc3c4cccnc4c4ncccc4c3[nH]2)cc1.[Ru+2].c1cnc2c(c1)ccc1cccnc12.c1cnc2c(c1)ccc1cccnc12 [Λ-Ru] | weak | 22.7 | 930000 | 8.9e+06 |
| Oc1ccc(-c2nc3c4cccnc4c4ncccc4c3[nH]2)cc1.[Ru+2].c1cnc2c(c1)ccc1cccnc12.c1cnc2c(c1)ccc1cccnc12 [Λ/Δ-Ru] | weak | 18.4 | 910000 |  |
| Oc1ccc(-c2nc3c4cccnc4c4ncccc4c3[nH]2)cc1.[Ru+2].c1cnc2c(c1)ccc1cccnc12.c1cnc2c(c1)ccc1cccnc12 [Δ-Ru] | weak | 15.0 | 720000 | 8.3e+06 |
